Source: ChEMBL document CHEMBL5053524, “Novel Electrophilic Warhead Targeting a Triple-Negative Breast Cancer Driver in Live Cells Revealed by "Inverse Drug Discovery"” (J Med Chem, 2021)

Experiments:
Bcap37 = assay: Antiproliferative activity against human BcaP37 cells assessed as cell viability incubated for 24 hrs by CCk8 assay; assay type: functional, cell-based; settings: Bcap37, 24 h
[1] = biological target: Glutathione S-transferase P (Homo sapiens, UniProt P09211); assay: Inhibition of recombinant GSTP1 (unknown origin) using GSH substrate
MDA-MB-468 [2] = assay: Antiproliferative activity agaisnt human MDA-MB-468 cells assessed as cell viability incubated for 24 hrs by CCK8 assay; assay type: functional, cell-based; settings: MDA-MB-468, 24 h
MDA-MB-453 = assay: Antiproliferative activity agaisnt human MDA-MB-453 cells assessed as cell viability incubated for 24 hrs by CCK8 assay; assay type: functional, cell-based; settings: MDA-MB-453, 24 h
MDA-MB-468 [3] = assay: Antiproliferative activity agaisnt human MDA-MB-468 cells assessed as cell viability incubated for 24 hrs in presence of scrambled siRNA by CCK8 assay; assay type: functional, cell-based; settings: MDA-MB-468, 24 h
MDA-MB-231 = assay: Antiproliferative activity agaisnt human MDA-MB-231 cells assessed as cell viability incubated for 24 hrs by CCK8 assay; assay type: functional, cell-based; settings: MDA-MB-231, 24 h
MDA-MB-468 [4] = assay: Antiproliferative activity agaisnt human MDA-MB-468 cells assessed as cell viability incubated for 24 hrs in presence of GSTP1 siRNA by CCK8 assay; assay type: functional, cell-based; settings: MDA-MB-468, 24 h
MCF7 = assay: Antiproliferative activity agaisnt human MCF7 cells assessed as cell viability incubated for 24 hrs by CCK8 assay; assay type: functional, cell-based; settings: MCF7, 24 h

Chain of Glutathione S-transferase P (P09211 whole entry): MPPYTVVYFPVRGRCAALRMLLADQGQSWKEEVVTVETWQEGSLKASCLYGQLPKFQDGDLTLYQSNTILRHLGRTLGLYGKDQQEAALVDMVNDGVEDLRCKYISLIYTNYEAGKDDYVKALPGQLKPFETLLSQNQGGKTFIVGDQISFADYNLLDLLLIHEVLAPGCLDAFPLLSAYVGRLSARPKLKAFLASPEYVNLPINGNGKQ

**Q.** `C#CCOc1ccc(-c2c(N(CC)CC)c2=O)cc1` was tested. Which IC50 (Bcap37) did it give?
**A.** Its IC50 is 46.1 µM.

**Q.** Which results are given for `C#CCOC(=O)CCCCc1cc1=O`?
**A.** IC50 (Bcap37): 10.6 µM; IC50 [1]: 1.18 µM

**Q.** For `O=c1cc1-c1ccc2ccccc2c1`, which IC50 [1] is on record?
**A.** The IC50 was 0.36 µM.

**Q.** With `C#CCOc1ccc(-c2c(-c3ccc(OCC#C)cc3)c2=O)cc1` as the compound, how does the IC50 (Bcap37) read?
**A.** The IC50 was 26.1 µM.

**Q.** With `O=c1cc1-c1ccc(Oc2ccccc2)cc1` as the compound, how does the IC50 [1] read?
**A.** Its IC50 is 0.73 µM.

**Q.** With `C#CCOc1ccc(-c2cc2=O)cc1` as the compound, how does the IC50 (Bcap37) read?
**A.** The IC50 was 45 µM.

**Q.** And the IC50 [1]?
**A.** Its IC50 is 1.64 µM.

**Q.** How did the IC50 (MDA-MB-468 [2]) turn out when `O=c1cc1-c1ccc(OCc2ccccc2)cc1` was run?
**A.** Its IC50 is 3.47 µM.

**Q.** And the IC50 (MDA-MB-453)?
**A.** Its IC50 is 11 µM.

**Q.** And the IC50 (MDA-MB-468 [3])?
**A.** Its IC50 is 3.46 µM.

**Q.** And the IC50 (MDA-MB-231)?
**A.** Its IC50 is 5.02 µM.

**Q.** What about the IC50 [1] of the same compound?
**A.** The IC50 was 0.73 µM.

**Q.** What about the IC50 (MDA-MB-468 [4]) of the same compound?
**A.** Its IC50 is 5.02 µM.

**Q.** What about the IC50 (MCF7) of the same compound?
**A.** The IC50 was 12.5 µM.

**Q.** With `O=c1cc1-c1ccc(OCc2ccc(-c3ccccc3)cc2)cc1` as the compound, how does the IC50 [1] read?
**A.** Its IC50 is 3.2 µM.

**Q.** Which IC50 (MDA-MB-468 [2]) does the source give for `COc1ccc2cc(-c3cc3=O)ccc2c1` here?
**A.** The IC50 was 4.48 µM.

**Q.** What about the IC50 (MDA-MB-453) of the same compound?
**A.** Its IC50 is 30 µM.

**Q.** What about the IC50 (MDA-MB-468 [3]) of the same compound?
**A.** Its IC50 is 4.47 µM.

**Q.** What about the IC50 (MDA-MB-231) of the same compound?
**A.** The IC50 was 6.14 µM.

**Q.** And the IC50 [1]?
**A.** The IC50 was 1.99 µM.

**Q.** What about the IC50 (MDA-MB-468 [4]) of the same compound?
**A.** The IC50 was 20.1 µM.

**Q.** What about the IC50 (MCF7) of the same compound?
**A.** Its IC50 is 14.7 µM.
